Test results reported in patent US4703061A, “Gamma-aminobutyric acid derivatives, process for production thereof, and use thereof as medicaments” (priority 1984, dated 1987).
Structures can show the parent of a compound that is named as a salt.

Key:
ddY-strain male mice = test: Irwin's observation method (behavior, nervous, autonomic nervous and toxic symptoms); assay type: in vivo; conditions: 1,000 mg/kg or below, i.p.; vs control group
From the text: These mice were also observed for changes in behavior, nervous symptoms, autonomic nervous symptoms, and toxic symptoms in accordance with the Irwin's observation method.

[1] = system: electric convulsive shock-induced amnesia model; test: Effects on ECS-induced amnesia (step-down retention test); assay type: in vivo, ddY-strain male mice; conditions: for Escape learning latency (mean ± S.E.) / Step-down latency (mean ± S.E.): ECS 300 V, retention test 24 hours
Procedure: The test animals used were ddY-strain male mice (body weight 30-35 g). The experiment was carried out indoors at about 20° C., and the mice were allowed to take feed and water freely. 2. Effects on memorized behaviors A device comprised of a floor grid surrounded on four sides by acrylic glass walls each having a lateral dimension of 21 cm and a wooden platform, 4×4×4 cm in size, fixed centrally to the floor grid was placed in a wooden semi-soundproof box having a size of 21×21×40 cm with a […] electric bulb suspended from its ceiling. The floor grid consisted of stainless steel rods, 3 mm in diameter, arranged at intervals of 8 mm. An intermittent electric shock (1 Hz, 0.5 sec., 60 V DC) was applied to the grid by an electric impulse apparatus and an isolator. A mouse was placed in a predetermined direction on the platform. Immediately after the mouse stepped down onto the floor grid (when the mouse's four limbs left the platform), an electric shock was applied to the floor grid, and the intermittent application of the electric shock was continued until the mouse climbed up the platform to escape from the electric shock. The time which elapsed until the mouse stepped down from the platform (SDL, step down latency) and the time which elapsed until the mouse escaped to the platform from the electric shock (ELL, escape learning latency) were measured. […] By the same procedure as in the training test, a mouse was placed on the platform, and its step down latency (SDL) was measured. The cut-off time was 300 seconds. After the mouse stepped down, or the cut-off time elapsed, the mouse was placed on the floor grid at a corner of the device with its head directed in a direction opposite to the platform. An electric shock was applied to the mouse and its escape learning latency (ELL) was measured. Mice divided into groups each consisting of not less than 15 mice were subjected to the training test, and immediately then, ECS (300 V DC, 0.5 sec.) was applied to the mice through both ears. Twenty-four hours later, the mice were subjected to the retention test. Immediately after administration of CXM or application of ECS, a 0.9% normal saline solution of each of the test compounds was intraperitoneally administered to the mice. Separately, a 5% gum arabic solution of CXM was administered to the mice in a control group. […] But the mice recovered 1 to 2 minutes later.

[2] = system: planar locomotor activity of mice; test: Effects on planar locomotor activity, automex method; assay type: in vivo, ddY-strain male mice
Procedure: (§1) In Tests 1 to 4 given below, ddY-strain male mice (body weight 20-25 g) were used, and the experiments were carried out in a semi-soundproof, constant-temperature room kept at a temperature of 23±1° C. and a humidity of 55±2%. The mice were allowed to take feed and water freely.
The effects of the test compound on planar locomotor activity of the mice were examined by using an automex activity meter (made by Columbus Company). […] The test compound was intraperitoneally administered to the mice in doses indicated. Immediately then, five mice were put into each of transparent plastic cages (27×17×17 cm), and placed on the automex activity meter. The motor activity for 30 minutes was measured at 5 minutes intervals, and compared with that of the control group.

[3] = system: motor activity enhanced by methamphetamine; test: Antagonistic effect against methamphetamine (automex method); assay type: in vivo, ddY-strain male mice; conditions: for Motor activity (total number of counts): 500 mg/kg i.p. + methamphetamine 3 mg/kg s.c.
Procedure: as §1
Test 2: Antagonistic effect against methamphetamine (automex method)
Mice were used in 5-membered groups. Each of the test compounds was intraperitoneally administered to the mice in a predetermined dose, and immediately then, the mice were subcutaneously injected with methamphetamine in a dose of 3 mg/kg. The action of the test compounds on motor activity enhanced by methamphetamine was examined in accordance with the automex method given above.

[4] = system: motor activity induced by atropine; test: Antagonistic effect against atropine (automex method); assay type: in vivo, ddY-strain male mice; conditions: 600 mg/kg i.p. + atropine 30 mg/kg s.c.
Procedure: as §1
Test 4: Antagonistic effect against atropine (automex method)
Each of the test compounds was intraperitoneally administered to mice divided into 6-membered groups, and immediately then, atropine was subcutaneously injected into the mice in a dose of 30 mg/kg. The effect of each test compound on the enhancement of motor activity induced by atropine was examined in accordance with the automex method.

CC(O)(CCO)CC(=O)NCCCC(=O)O (stereo not shown) [MV-GABA-Ca salt, calcium 4-(3,5-dihydroxy-3-methylpentylamide) butyrate]
changes in behavior, nervous symptoms, autonomic nervous symptoms, and toxic symptoms (ddY-strain male mice): no marked difference from the control group could be found
Escape learning latency (mean ± S.E.) ([1]; 250 mg/kg i.p.): 12.8 ± 1.6 s
Step-down latency (mean ± S.E.) ([1]; 250 mg/kg i.p.): 104.6 ± 17.7 s
Escape learning latency (mean ± S.E.) ([1]; 500 mg/kg i.p.): 8.0 ± 1.1 s
Step-down latency (mean ± S.E.) ([1]; 500 mg/kg i.p.): 158.5 ± 21.7 s
prolongation of ELL (ECS) ([1]; 500 mg/kg, result in words): significantly improved the prolongation of ELL
Escape learning latency (mean ± S.E.) ([1]; 750 mg/kg i.p.): 6.7 ± 0.7 s
Step-down latency (mean ± S.E.) ([1]; 750 mg/kg i.p.): 215.2 ± 15.9 s
shortening of SDL and prolongation of ELL (ECS) ([1]; 750 mg/kg, result in words): significantly improved shortening of SDL and also the prolongation of ELL
Motor activity (total number of counts) ([2]; 500 mg/kg i.p., 5 minutes): 172 counts
Motor activity (total number of counts) ([2]; 500 mg/kg i.p., 10 minutes): 241 counts
Motor activity (total number of counts) ([2]; 500 mg/kg i.p., 15 minutes): 307 counts
Motor activity (total number of counts) ([2]; 500 mg/kg i.p., 20 minutes): 405 counts
Motor activity (total number of counts) ([2]; 500 mg/kg i.p., 25 minutes): 505 counts
Motor activity (total number of counts) ([2]; 500 mg/kg i.p., 30 minutes): 558 counts
Motor activity (total number of counts) ([2]; 1000 mg/kg i.p., 5 minutes): 91 counts
Motor activity (total number of counts) ([2]; 1000 mg/kg i.p., 10 minutes): 128 counts
Motor activity (total number of counts) ([2]; 1000 mg/kg i.p., 15 minutes): 156 counts
Motor activity (total number of counts) ([2]; 1000 mg/kg i.p., 20 minutes): 177 counts
Motor activity (total number of counts) ([2]; 1000 mg/kg i.p., 25 minutes): 189 counts
Motor activity (total number of counts) ([2]; 1000 mg/kg i.p., 30 minutes): 203 counts
Motor activity (total number of counts) ([3]; 5 minutes): 10 counts
Motor activity (total number of counts) ([3]; 10 minutes): 11 counts
Motor activity (total number of counts) ([3]; 15 minutes): 22 counts
Motor activity (total number of counts) ([3]; 20 minutes): 38 counts
Motor activity (total number of counts) ([3]; 25 minutes): 71 counts
Motor activity (total number of counts) ([3]; 30 minutes): 126 counts
antagonistic effect against the increase of motor activity induced by methamphetamine ([3]; 500 mg/kg, result in words): markedly inhibited the motor activity of mice enhanced by methamphetamine
Motor activity (total number of counts) ([4]; 5 minutes): 8 counts
Motor activity (total number of counts) ([4]; 10 minutes): 12 counts
Motor activity (total number of counts) ([4]; 15 minutes): 19 counts
Motor activity (total number of counts) ([4]; 20 minutes): 27 counts
Motor activity (total number of counts) ([4]; 25 minutes): 47 counts
Motor activity (total number of counts) ([4]; 30 minutes): 92 counts
